One assay concerns the target T1, MGLL (Mus musculus, UniProt O35678).
T1 construct: Brain; from tissue; host or cells: mouse brain proteome
T1 sequence (O35678 1-303): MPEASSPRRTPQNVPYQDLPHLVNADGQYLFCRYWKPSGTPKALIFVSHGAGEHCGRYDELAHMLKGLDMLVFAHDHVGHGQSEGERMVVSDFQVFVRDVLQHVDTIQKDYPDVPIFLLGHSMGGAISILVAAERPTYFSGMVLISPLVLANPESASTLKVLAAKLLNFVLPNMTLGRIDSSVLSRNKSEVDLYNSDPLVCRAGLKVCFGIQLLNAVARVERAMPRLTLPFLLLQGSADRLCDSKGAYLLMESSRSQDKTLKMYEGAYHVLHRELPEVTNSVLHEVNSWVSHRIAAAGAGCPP
The assay is described as follows: In vitro competitive activity-based protein profiling, mouse brain proteome. It counts as biochemical. The method, then:
[Worded in the source for another species; this species is reported under the same test.] (§1) Proteomes (human prefrontal cortex or cell membrane fractions) (50 μL, 1.0 mg/mL total protein concentration) were preincubated with varying concentrations of inhibitors at 37° C. After 30 min, FP—Rh or HT-01 (1.0 μL, 50 μM in DMSO) was added and the mixture was incubated for another 30 min at room temperature. Reactions were quenched with SDS loading buffer (15 μL-4×) and run on SDS-PAGE.

The target in another assay is T2, MAGL (Mus musculus, UniProt O35678).
T2 construct: from tissue; host or cells: brain of wild-type C57Bl/6J mice
T2 sequence (O35678 1-303): T1 sequence (O35678 1-303)
In words: Mouse brain proteomes from inhibitor treated mice (oral gavage, brain proteomes analyzed 4 h after administration). To be noted: brain proteome 4 h after administration, read-out: % Inh 5 mg/kg MGLL (Mouse). Format: in vivo, mouse (C57Bl/6J). Summed up:
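Wild-type C57Bl/6J mice dosed orally in polyethylene glycol vehicle; brains removed 4 h post-dose and brain proteomes prepared and analysed for MAGL and serine hydrolase activity by previously established methods.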

For a further assay, the target named is T3, ABHD6 (Mus musculus, UniProt Q8R2Y0).
T3 construct: Brain; from tissue; host or cells: mouse brain proteome
T3 sequence (Q8R2Y0 1-336): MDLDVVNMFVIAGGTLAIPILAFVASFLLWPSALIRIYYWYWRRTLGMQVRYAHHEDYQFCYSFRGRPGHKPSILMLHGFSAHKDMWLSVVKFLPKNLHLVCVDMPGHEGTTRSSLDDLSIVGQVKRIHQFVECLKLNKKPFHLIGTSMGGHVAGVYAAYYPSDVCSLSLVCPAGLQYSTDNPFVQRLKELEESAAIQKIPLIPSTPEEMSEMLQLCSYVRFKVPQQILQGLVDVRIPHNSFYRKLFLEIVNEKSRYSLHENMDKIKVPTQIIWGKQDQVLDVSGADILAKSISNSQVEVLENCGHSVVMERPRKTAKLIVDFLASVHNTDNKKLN
In words: In vitro competitive activity-based protein profiling, mouse brain proteome, ABHD6. Format: biochemical. Conditions: mouse. The method, then:
[Worded in the source for another target; this target is reported under the same test.] as §1

19 compounds from patent US20210214375A1 (LUNDBECK LA JOLLA RESEARCH CENTER, INC., priority 2017, published 2021) can be followed below.

By pIC50 is commonly meant the IC50 on a negative log10 scale, so that one unit is a factor of ten. The low end stands for a high IC50, the high end for a low IC50.

pIC50: −log10 of the molar value. Where only a bound is given, the exact number is not on record here.

As to `O=C(OC(C(F)(F)F)C(F)(F)F)N1CCC2(CCN(Cc3ccc(Cl)cc3N3CCC(F)CC3)CC2)C1` [Example 28, 1,1,1,3,3,3-Hexafluoropropan-2-yl 8-(4-chloro-2-(4-fluoropiperidin-1-yl)benzyl)-2,8-diazaspiro[4.5]decane-2-carboxylate], the pIC50 at MGLL was over 7.00; on ABHD6, under 6.00. At MAGL, the inhibition at 5 mg/kg was at least 75%.

Turning to `CC(=O)N1CCC2(CC1)CCN(c1cc(Cl)ccc1CN1CCN(C(=O)OC(C(F)(F)F)C(F)(F)F)CC1)C2` [Example 29, 1,1,1,3,3,3-Hexafluoropropan-2-yl 4-(2-(8-acetyl-2,8-diazaspiro[4.5]decan-2-yl)-4-chlorobenzyl)piperazine-1-carboxylate], the pIC50 at MGLL is over 7.00; on ABHD6, under 6.00. Also, on MAGL, the inhibition at 5 mg/kg was at least 75%.

On to `CS(=O)(=O)N1CCC2(CCN(c3cc(Cl)ccc3CN3CCN(C(=O)OC(C(F)(F)F)C(F)(F)F)CC3)C2)CC1` [Example 30, 1,1,1,3,3,3-Hexafluoropropan-2-yl 4-(4-chloro-2-(8-(methylsulfonyl)-2,8-diazaspiro[4.5]decan-2-yl)benzyl)piperazine-1-carboxylate], for which the pIC50 on MGLL is over 7.00; at ABHD6, under 6.00. Besides, on MAGL, the inhibition at 5 mg/kg is at most 25%.

Take `O=C(OC(C(F)(F)F)C(F)(F)F)N1CCC2(CC1)CN(Cc1c(N3CC4COCC4C3)cccc1C(F)(F)F)C2` (stereo not drawn) [Example 32, 1,1,1,3,3,3-Hexafluoropropan-2-yl 2-(2-(tetrahydro-1H-furo[3,4-c]pyrrol-5(3H)-yl)-6-(trifluoromethyl)benzyl)-2,7-diazaspiro[3.5]nonane-7-carboxylate]: the negative logarithm of the IC50 (pIC50) on MGLL is over 7.00; at ABHD6, under 6.00. Besides, the inhibition at 5 mg/kg on MAGL is at least 75%.

For `O=C(OC(C(F)(F)F)C(F)(F)F)N1CCC2(CC1)CN(Cc1ccc(Cl)cc1N1CCOCC1)C2` [Example 39, 1,1,1,3,3,3-Hexafluoropropan-2-yl 2-(4-chloro-2-morpholinobenzyl)-2,7-diazaspiro[3.5]nonane-7-carboxylate], the negative logarithm of the IC50 (pIC50) on MGLL was over 7.00; on ABHD6, 6.00 to 7.00. The inhibition at 5 mg/kg on MAGL is at least 75%.

Take `O=C(OC(C(F)(F)F)C(F)(F)F)N1CCC2(CC1)CN(Cc1c(N3CCCCC3)cccc1C(F)(F)F)C2` [Example 41, 1,1,1,3,3,3-Hexafluoropropan-2-yl 2-(2-(piperidin-1-yl)-6-(trifluoromethyl)benzyl)-2,7-diazaspiro[3.5]nonane-7-carboxylate]: the results for the negative-log IC50 (pIC50) at MGLL and at ABHD6 were over 7.00 and under 6.00, respectively. Moreover, the inhibition at 5 mg/kg at MAGL is at least 75%.

Take `CS(=O)(=O)N1CCN(c2cccc(Cl)c2CN2CC3(CCN(C(=O)OC(C(F)(F)F)C(F)(F)F)CC3)C2)CC1` [Example 44, 1,1,1,3,3,3-Hexafluoropropan-2-yl 2-(2-chloro-6-(4-(methylsulfonyl)piperazin-1-yl)benzyl)-2,7-diazaspiro[3.5]nonane-7-carboxylate]: the pIC50 on MGLL and on ABHD6 was over 7.00 each time. Besides, the inhibition at 5 mg/kg on MAGL is at least 75%.

With `O=C(OC(C(F)(F)F)C(F)(F)F)N1CCC2(CC1)CN(Cc1c(Cl)cccc1N1CCCCC1)C2` [Example 45, 1,1,1,3,3,3-Hexafluoropropan-2-yl 2-(2-chloro-6-(piperidin-1-yl)benzyl)-2,7-diazaspiro[3.5]nonane-7-carboxylate], the negative logarithm of the IC50 (pIC50) on MGLL and on ABHD6 was over 7.00 in each case. In addition, the inhibition at 5 mg/kg at MAGL is at least 75%.

With `O=C(OC(C(F)(F)F)C(F)(F)F)N1CCC2(CC1)CN(Cc1c(Cl)cccc1N1CCOCC1)C2` [Example 46, 1,1,1,3,3,3-Hexafluoropropan-2-yl 2-(2-chloro-6-morpholinobenzyl)-2,7-diazaspiro[3.5]nonane-7-carboxylate], the negative-log IC50 (pIC50) at MGLL and on ABHD6 was over 7.00 throughout. Moreover, the inhibition at 5 mg/kg at MAGL was at least 75%.

Consider `CC(=O)N1CCN(c2cccc(Cl)c2CN2CC3(CCN(C(=O)OC(C(F)(F)F)C(F)(F)F)CC3)C2)CC1` [Example 49, 1,1,1,3,3,3-Hexafluoropropan-2-yl 2-(2-(4-acetylpiperazin-1-yl)-6-chlorobenzyl)-2,7-diazaspiro[3.5]nonane-7-carboxylate], for which the pIC50 at MGLL and on ABHD6 was over 7.00 in each case. Besides, the inhibition at 5 mg/kg on MAGL is at least 75%.

Consider `CCN1CCN(c2cccc(Cl)c2CN2CC3(CCN(C(=O)OC(C(F)(F)F)C(F)(F)F)CC3)C2)CC1` [Example 50, 1,1,1,3,3,3-Hexafluoropropan-2-yl 2-(2-chloro-6-(4-ethylpiperazin-1-yl)benzyl)-2,7-diazaspiro[3.5]nonane-7-carboxylate], for which the negative-log IC50 (pIC50) at MGLL is over 7.00; at ABHD6, 6.00 to 7.00. Moreover, the inhibition at 5 mg/kg on MAGL is at most 25%.

For `O=C(OC(C(F)(F)F)C(F)(F)F)N1CCC2(CC1)CN(Cc1c(N3CCC(F)CC3)cccc1C(F)(F)F)C2` [Example 51, 1,1,1,3,3,3-Hexafluoropropan-2-yl 2-(2-(4-fluoropiperidin-1-yl)-6-(trifluoromethyl)benzyl)-2,7-diazaspiro[3.5]nonane-7-carboxylate], the pIC50 at MGLL was over 7.00; at ABHD6 it was under 6.00. Moreover, the inhibition at 5 mg/kg on MAGL is at least 75%.

`O=C(OC(C(F)(F)F)C(F)(F)F)N1CCC2(CC1)CN(Cc1c(N3CCC4(CCOCC4)C3)cccc1C(F)(F)F)C2` [Example 52, 1,1,1,3,3,3-Hexafluoropropan-2-yl 2-(2-(8-oxa-2-azaspiro[4.5]decan-2-yl)-6-(trifluoromethyl)benzyl)-2,7-diazaspiro[3.5]nonane-7-carboxylate]: the pIC50 is over 7.00 on MGLL and 6.00 to 7.00 on ABHD6. Besides, the inhibition at 5 mg/kg on MAGL was at least 75%.

As to `CS(=O)(=O)N1CCN(c2cccc(C(F)(F)F)c2CN2CC3(CCN(C(=O)OC(C(F)(F)F)C(F)(F)F)CC3)C2)CC1` [Example 53, 1,1,1,3,3,3-Hexafluoropropan-2-yl 2-(2-(4-(methylsulfonyl)piperazin-1-yl)-6-(trifluoromethyl)benzyl)-2,7-diazaspiro[3.5]nonane-7-carboxylate], the negative logarithm of the IC50 (pIC50) at MGLL is over 7.00; on ABHD6, 6.00 to 7.00. In addition, the inhibition at 5 mg/kg on MAGL is at least 75%.

For `CCN1CCN(c2cccc(C(F)(F)F)c2CN2CC3(CCN(C(=O)OC(C(F)(F)F)C(F)(F)F)CC3)C2)CC1` [Example 54, 1,1,1,3,3,3-Hexafluoropropan-2-yl 2-(2-(4-ethylpiperazin-1-yl)-6-(trifluoromethyl)benzyl)-2,7-diazaspiro[3.5]nonane-7-carboxylate], the figures for the pIC50 at MGLL and on ABHD6 were over 7.00 and under 6.00, respectively. Besides, the inhibition at 5 mg/kg at MAGL was at most 25%.

With `O=C(OC(C(F)(F)F)C(F)(F)F)N1CCC2(CC1)CN(Cc1c(Cl)cccc1N1CC3COCC3C1)C2` (stereo not drawn) [Example 57, 1,1,1,3,3,3-Hexafluoropropan-2-yl 2-(2-chloro-6-(tetrahydro-1H-furo[3,4-c]pyrrol-5(3H)-yl)benzyl)-2,7-diazaspiro[3.5]nonane-7-carboxylate], the negative logarithm of the IC50 (pIC50) is over 7.00 on MGLL and 6.00 to 7.00 on ABHD6. On MAGL, the inhibition at 5 mg/kg is at least 75%.

Turning to `O=C(OC(C(F)(F)F)C(F)(F)F)N1CCC2(CC1)CN(Cc1c(Cl)cccc1N1CCN(C3CC3)CC1)C2` [Example 58, 1,1,1,3,3,3-Hexafluoropropan-2-yl 2-(2-chloro-6-(4-cyclopropylpiperazin-1-yl)benzyl)-2,7-diazaspiro[3.5]nonane-7-carboxylate], the values for the negative logarithm of the IC50 (pIC50) at MGLL and at ABHD6 were over 7.00 and 6.00 to 7.00, respectively. At MAGL, the inhibition at 5 mg/kg is at least 75%.

As for `CC(=O)N1CCN(c2cccc(C(F)(F)F)c2CN2CC3(CCN(C(=O)OC(C(F)(F)F)C(F)(F)F)CC3)C2)CC1` [Example 59, 1,1,1,3,3,3-Hexafluoropropan-2-yl 2-(2-(4-acetylpiperazin-1-yl)-6-(trifluoromethyl)benzyl)-2,7-diazaspiro[3.5]nonane-7-carboxylate], the results for the pIC50 at MGLL and on ABHD6 were over 7.00 and 6.00 to 7.00, respectively. In addition, the inhibition at 5 mg/kg on MAGL was at least 75%.

As for `O=C(OC(C(F)(F)F)C(F)(F)F)N1CCC2(CC1)CN(Cc1c(N3CCN(C4CC4)CC3)cccc1C(F)(F)F)C2` [Example 60, 1,1,1,3,3,3-Hexafluoropropan-2-yl 2-(2-(4-cyclopropylpiperazin-1-yl)-6-(trifluoromethyl)benzyl)-2,7-diazaspiro[3.5]nonane-7-carboxylate], the negative logarithm of the IC50 (pIC50) at MGLL is over 7.00; on ABHD6, under 6.00. In addition, the inhibition at 5 mg/kg on MAGL is at least 75%.
